In ChEMBL document CHEMBL1201862, “PubChem BioAssay data set” (2004):
Active and inactive are the calls of the source.

Columns and labels:
[1] = target: T1, RNA-binding protein pos-1 (Caenorhabditis elegans, UniProt G5EF15); assay: disruptors of C. elegans POS-1 RNA interaction – biochemical, fluorescence polarization, dose response (AID 1964);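 note: purified POS-1 fused to maltose binding protein made in E. coli; potency of compounds blocking POS-1 binding to fluorescent RNA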
T1 sequence (G5EF15 whole entry): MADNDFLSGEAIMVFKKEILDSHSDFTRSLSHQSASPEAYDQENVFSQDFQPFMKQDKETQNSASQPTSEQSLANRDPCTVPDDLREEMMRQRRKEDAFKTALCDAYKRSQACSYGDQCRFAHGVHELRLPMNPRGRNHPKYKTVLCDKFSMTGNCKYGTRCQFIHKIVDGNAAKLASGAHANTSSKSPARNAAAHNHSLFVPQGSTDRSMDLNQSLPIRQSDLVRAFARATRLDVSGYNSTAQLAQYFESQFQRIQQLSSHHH

[2] = target: T2, Zinc finger protein mex-5 (Caenorhabditis elegans, UniProt Q9XUB2); assay: potency of MEX-5 RNA-binding blockers – biochemical, C. elegans, fluorescence polarization, dose response (AID 1960)
T2 sequence (Q9XUB2 whole entry): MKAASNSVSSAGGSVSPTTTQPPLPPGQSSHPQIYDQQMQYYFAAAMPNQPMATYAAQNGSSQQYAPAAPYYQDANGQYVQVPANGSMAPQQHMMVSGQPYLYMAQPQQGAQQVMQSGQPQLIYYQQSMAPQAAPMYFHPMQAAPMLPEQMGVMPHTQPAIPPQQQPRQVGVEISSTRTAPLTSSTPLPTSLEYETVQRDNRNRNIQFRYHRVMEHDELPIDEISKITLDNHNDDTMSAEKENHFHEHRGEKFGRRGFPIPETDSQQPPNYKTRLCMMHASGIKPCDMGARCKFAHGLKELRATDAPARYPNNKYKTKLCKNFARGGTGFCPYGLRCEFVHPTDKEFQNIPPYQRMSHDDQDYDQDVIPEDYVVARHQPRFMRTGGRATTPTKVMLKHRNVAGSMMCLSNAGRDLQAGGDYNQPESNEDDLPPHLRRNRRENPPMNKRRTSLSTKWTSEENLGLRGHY

[3] = target: UDP-galactopyranose mutase (Mycobacterium tuberculosis, UniProt P9WIQ1); assay: Inhibitors of Mycobacterium tuberculosis UDP-galactopyranose mutase (UGM) enzyme Measured in Biochemical System Using Plate Reader - 2105-02_Inhibitor_Dose_CherryPick_Activity. [Related pubchem assays (depositor defined):AID504439]
Cytochrome P450 1A2 = target: T3, Cytochrome P450 1A2 (Homo sapiens, UniProt P05177);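 note: PubChem cytochrome P450 panel assay, CYP1A2 panel member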
T3 sequence (P05177 whole entry): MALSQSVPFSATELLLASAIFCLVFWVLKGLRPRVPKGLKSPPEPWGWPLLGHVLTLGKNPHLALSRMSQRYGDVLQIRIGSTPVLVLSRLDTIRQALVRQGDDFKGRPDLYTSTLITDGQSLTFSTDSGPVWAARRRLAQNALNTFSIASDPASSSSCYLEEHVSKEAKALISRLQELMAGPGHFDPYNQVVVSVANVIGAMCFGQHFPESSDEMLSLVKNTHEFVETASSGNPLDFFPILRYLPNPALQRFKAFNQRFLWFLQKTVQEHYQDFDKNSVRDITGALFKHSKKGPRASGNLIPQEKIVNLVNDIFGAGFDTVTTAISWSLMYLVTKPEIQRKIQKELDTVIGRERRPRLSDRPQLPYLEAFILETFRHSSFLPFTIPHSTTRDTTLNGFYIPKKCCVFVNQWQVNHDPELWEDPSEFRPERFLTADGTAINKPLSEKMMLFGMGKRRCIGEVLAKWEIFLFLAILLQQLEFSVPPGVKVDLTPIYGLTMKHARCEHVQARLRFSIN

Sequence of UDP-galactopyranose mutase (P9WIQ1 whole entry): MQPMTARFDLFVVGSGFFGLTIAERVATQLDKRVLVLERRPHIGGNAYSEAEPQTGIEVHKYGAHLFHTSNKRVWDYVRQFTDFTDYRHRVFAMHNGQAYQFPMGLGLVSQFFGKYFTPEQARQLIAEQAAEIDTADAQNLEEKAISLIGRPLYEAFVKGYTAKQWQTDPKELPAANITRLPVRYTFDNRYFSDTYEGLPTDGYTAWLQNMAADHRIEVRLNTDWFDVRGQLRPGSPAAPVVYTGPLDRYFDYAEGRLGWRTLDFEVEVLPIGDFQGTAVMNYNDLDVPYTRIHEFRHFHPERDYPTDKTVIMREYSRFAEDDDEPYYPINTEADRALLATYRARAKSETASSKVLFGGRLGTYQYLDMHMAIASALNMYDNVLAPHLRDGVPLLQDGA

Row | SMILES | EC50 [1] | EC50 [2] | AC50 [3] | AC50 (Cytochrome P450 1A2)
1 | O=C1c2cccc3c(N4CCCCC4)ccc(c23)C(=O)N1c1ccccn1 | > 300 µM (inconclusive) | 5.26 µM (inconclusive) | 58.7 µM (active) | 
2 | O=C(c1cnccn1)N1CCC2(CCN(Cc3cc(C(F)(F)F)cc(C(F)(F)F)c3)CC2)CC1 |  |  |  | inactive
